Measurements published in the NIST ThermoML archive (doi:10.1016/j.tca.2012.07.004).

Assay: xn = mol fraction of the nth substance listed
Conditions: 101 kPa, Liquid; for mass density: Vibrating tube method; for viscosity: Vibrating wire viscometry; for speed of sound: ultrasonic interferometer

CC(=O)[O-].C[NH+](C)C [trimethylammonium acetate] + CN1CCCC1=O
Conditions	mass density [kg/m3]	speed of sound [m/s]	viscosity [mPa·s]
298.15 K, x1 = 0.0182	1028.63	1571	2.04
298.15 K, x1 = 0.0369	1030.53	1575	2.28
298.15 K, x1 = 0.0987	1036.87	1578	3.04
298.15 K, x1 = 0.1401	1039.96	1581	3.42
298.15 K, x1 = 0.2032	1043.65	1586	3.89
298.15 K, x1 = 0.3166	1047.89	1584	4.5
298.15 K, x1 = 0.3637	1048.9	1582	4.56
298.15 K, x1 = 0.4353	1049.74	1580	4.61
298.15 K, x1 = 0.5625	1049.92	1571	4.52
298.15 K, x1 = 0.6999	1049.74	1559	4.23
298.15 K, x1 = 0.8435	1050.4	1550	3.7
298.15 K, x1 = 0.936	1051.83	1544	3.27
298.15 K, x1 = 0.9675	1052.54	1543	3.02
298.15 K, x1 = 1	1053.85	1544	2.76
303.15 K, x1 = 0.0182	1026.1	1556	1.64
303.15 K, x1 = 0.0369	1027.79	1560	1.86
303.15 K, x1 = 0.0987	1033.52	1565	2.56
303.15 K, x1 = 0.1401	1036.31	1568	3
303.15 K, x1 = 0.2032	1039.76	1572	3.48
303.15 K, x1 = 0.3166	1043.59	1569	4.05
303.15 K, x1 = 0.3637	1044.52	1566	4.11
303.15 K, x1 = 0.4353	1045.32	1564	4.16
303.15 K, x1 = 0.5625	1045.54	1551	4.01
303.15 K, x1 = 0.6999	1045.69	1537	3.64
303.15 K, x1 = 0.8435	1046.54	1524	3.14
303.15 K, x1 = 0.936	1048.22	1517	2.78
303.15 K, x1 = 0.9675	1048.93	1515	2.52
303.15 K, x1 = 1	1049.87	1514	2.37
308.15 K, x1 = 0.0182	1021.24	1534	1.43
308.15 K, x1 = 0.0369	1023.08	1540	1.57
308.15 K, x1 = 0.0987	1028.14	1546	2.23
308.15 K, x1 = 0.1401	1030.79	1550	2.64
308.15 K, x1 = 0.2032	1034.23	1555	3.14
308.15 K, x1 = 0.3166	1037.97	1554	3.7
308.15 K, x1 = 0.3637	1039.05	1553	3.76
308.15 K, x1 = 0.4353	1039.98	1551	3.77
308.15 K, x1 = 0.5625	1040.55	1540	3.52
308.15 K, x1 = 0.6999	1040.85	1530	3.12
308.15 K, x1 = 0.8435	1042	1519	2.64
308.15 K, x1 = 0.936	1043.81	1512	2.34
308.15 K, x1 = 0.9675	1044.69	1511	2.16
308.15 K, x1 = 1	1045.81	1508	2.06
313.15 K, x1 = 0.0182	1016.53	1528	1.52
313.15 K, x1 = 0.0369	1017.98	1533	1.38
313.15 K, x1 = 0.0987	1023.07	1538	1.96
313.15 K, x1 = 0.1401	1025.67	1542	2.39
313.15 K, x1 = 0.2032	1029.09	1546	2.81
313.15 K, x1 = 0.3166	1032.81	1544	3.37
313.15 K, x1 = 0.3637	1033.73	1543	3.41
313.15 K, x1 = 0.4353	1034.71	1540	3.42
313.15 K, x1 = 0.5625	1035.21	1528	3.16
313.15 K, x1 = 0.6999	1035.7	1517	2.74
313.15 K, x1 = 0.8435	1037.36	1508	2.25
313.15 K, x1 = 0.936	1039.26	1502	2.04
313.15 K, x1 = 0.9675	1040.35	1496	1.92
313.15 K, x1 = 1	1041.7	1490	1.83
